This assay has as its system P388 leukemia ip, CD2F1 mice, survival T/C. In words: NCI In Vivo Anticancer Drug Screen. Data for tumor model P388 Leukemia (intraperitoneal) in CD2F1 (CDF1) mice. The note with it: endpoint: median survival time, higher = longer survival. Put shortly: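 Mice carrying the transplanted tumor received test compound or vehicle. Survival was recorded in each group, and the value is the treated-group measurement divided by that of the vehicle-treated control group.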

The mark [1] stands for this setting: dose: 60.0 mg/kg/injection, schedule: Q01DX005 (ip), vehicle: saline with Tween-80.
Setting [2] is: dose: 120.0 mg/kg/injection, schedule: Q01DX005 (ip), vehicle: saline with Tween-80.
[3] abbreviates: dose: 240.0 mg/kg/injection, schedule: Q01DX005 (ip), vehicle: saline with Tween-80.
[4] abbreviates: dose: 50.0 mg/kg/injection, schedule: Q01DX009 (ip), vehicle: saline.
Where [5] appears, read: dose: 200.0 mg/kg/injection, schedule: Q01DX009 (ip), vehicle: saline.
Setting [6] is: dose: 60.0 mg/kg/injection, schedule: Q01DX005 (ip), vehicle: Klucel + Tween-80.
The mark [7] stands for this setting: dose: 120.0 mg/kg/injection, schedule: Q01DX005 (ip), vehicle: Klucel + Tween-80.
Setting [8] is: dose: 240.0 mg/kg/injection, schedule: Q01DX005 (ip), vehicle: Klucel + Tween-80.

The structures appear in SMILES notation. Several values for one entry are separate records, joined by “and”; a condition that tells them apart may be missing. Equal entries are not always repeated. Inconclusive results and toxic doses are left out.

T/C data for 17 compounds are collected here from PubChem BioAssay AID330 (DTP/NCI, 2004).

In the case of `CC1(C)C/C(=N/NC(N)=S)C(=NO)/C(=N\NC(N)=S)C1`, the T/C is, setting by setting: under setting [1], 123 % of control; under setting [2], 110 % of control; under setting [3], 113 % of control.

For the compound `CN(C)C1=NC1(C)C`, the T/C runs as follows: under setting [4], 100 % of control; (dose: 100.0 mg/kg/injection, schedule: Q01DX009 (ip), vehicle: saline) 102 % of control; under setting [5], 91 % of control.

With `COC(=O)c1nc(=S)[nH]c(C(=O)OC)c1C(=O)c1ccccn1`, the T/C under setting [6] is 105 % of control, the T/C under setting [7] was 95 % of control and the T/C under setting [8] is 95 % of control.

Turning to `NNS(=O)(=O)c1cccc(S(=O)(=O)NN)c1`, the T/C by setting is: (dose: 12.5 mg/kg/injection, schedule: Q01DX009 (ip), vehicle: other) 96 % of control; (dose: 25.0 mg/kg/injection, schedule: Q01DX009 (ip), vehicle: other) 96 % of control; (dose: 50.0 mg/kg/injection, schedule: Q01DX009 (ip), vehicle: other) 99 % of control.

As to `[O-][n+]1ccc(Br)c(/C=C/c2ccccc2)c1`, the T/C (dose: 30.0 mg/kg/injection, schedule: Q01DX005 (ip), vehicle: saline with Tween-80) was 101 % of control; the T/C under setting [1] is 101 % of control; the T/C under setting [2] was 102 % of control; the T/C under setting [3] is 101 % of control.

Regarding `COC1=C(C)C2CC(=O)OC3CC4C(C)CC(O)C(=O)C4(C)C(C1=O)C32C` (centres undefined), the T/C reads like this: (dose: 0.5 mg/kg/injection, schedule: Q01DX009 (ip), vehicle: saline + alcohol) 108 % of control; (dose: 1.0 mg/kg/injection, schedule: Q01DX009 (ip), vehicle: saline + alcohol) 106 % of control; (dose: 2.0 mg/kg/injection, schedule: Q01DX009 (ip), vehicle: saline + alcohol) 106 % of control; (dose: 4.0 mg/kg/injection, schedule: Q01DX009 (ip), vehicle: saline + alcohol) 104 % of control; (dose: 8.0 mg/kg/injection, schedule: Q01DX009 (ip), vehicle: saline + alcohol) 107 % of control.

As for `S=C(Nc1ccccc1)Nc1ncn[nH]1`, the T/C is 101 % of control (dose: 50.0 mg/kg/injection, schedule: Q01DX005 (ip), vehicle: Klucel (hydroxypropylcellulose) (HPC)); 100 % of control (dose: 100.0 mg/kg/injection, schedule: Q01DX005 (ip), vehicle: Klucel (hydroxypropylcellulose) (HPC)); 99 % of control (dose: 200.0 mg/kg/injection, schedule: Q01DX005 (ip), vehicle: Klucel (hydroxypropylcellulose) (HPC)).

With `Cc1cc2c(cc1CC(=O)O)CC(=O)NC2`, the T/C was 109 % of control (dose: 1.56 mg/kg/injection, schedule: Q01DX009 (ip), vehicle: distilled water + Tween-80); 104 % of control (dose: 3.13 mg/kg/injection, schedule: Q01DX009 (ip), vehicle: distilled water + Tween-80); 123 % of control and 95 % of control (dose: 6.25 mg/kg/injection, schedule: Q01DX009 (ip), vehicle: distilled water + Tween-80); 101 % of control (dose: 12.5 mg/kg/injection, schedule: Q01DX009 (ip), vehicle: distilled water + Tween-80); 101 % of control and 96 % of control (dose: 25.0 mg/kg/injection, schedule: Q01DX009 (ip), vehicle: distilled water + Tween-80); 104 % of control and 96 % of control (dose: 50.0 mg/kg/injection, schedule: Q01DX009 (ip), vehicle: distilled water + Tween-80). Also, the T/C is 102 % of control and 95 % of control (dose: 100.0 mg/kg/injection, schedule: Q01DX009 (ip), vehicle: distilled water + Tween-80); 100 % of control (dose: 200.0 mg/kg/injection, schedule: Q01DX009 (ip), vehicle: distilled water + Tween-80); 92 % of control (dose: 400.0 mg/kg/injection, schedule: Q01DX009 (ip), vehicle: distilled water + Tween-80).

For `COC(=O)c1c(C(=O)c2ccccc2)nnn1-c1cccc(C(F)(F)F)c1`, the T/C was 102 % of control under setting [6], 103 % of control under setting [7] and 107 % of control under setting [8].

Regarding `COCC1=C(C)CC(C(C)(C)C(=O)OC)C1=O` (centres undefined), the T/C runs as follows: (dose: 100.0 mg/kg/injection, schedule: Q01DX001 (ip), vehicle: saline) 101 % of control; (dose: 200.0 mg/kg/injection, schedule: Q01DX001 (ip), vehicle: saline) 101 % of control; (dose: 400.0 mg/kg/injection, schedule: Q01DX001 (ip), vehicle: saline) 104 % of control.

`CN(C)CCCSc1c2ccccc2nc2cccc([N+](=O)[O-])c12`: the T/C is, setting by setting: under setting [1], 94 % of control; under setting [2], 106 % of control.

On to `Cc1ccc(NC(=O)Oc2ccc(F)cc2Cl)c([N+](=O)[O-])c1`, for which the T/C by setting is: (dose: 50.0 mg/kg/injection, schedule: Q01DX009 (ip), vehicle: saline with Tween-80) 112 % of control; (dose: 100.0 mg/kg/injection, schedule: Q01DX009 (ip), vehicle: saline with Tween-80) 118 % of control.

With `COc1cc(C2C3=C(CCC3)Oc3cc4c(cc32)OCO4)cc(OC)c1OC` (centres undefined), the T/C is 91 % of control under setting [1], 86 % of control under setting [2] and 86 % of control under setting [3].

For `Cc1c(-c2nc(N)nc(C3CC3)c2C)nc(N)nc1C1CC1`, the T/C runs as follows: (dose: 60.0 mg/kg/injection, schedule: Q01DX005 (ip), vehicle: saline) 102 % of control; (dose: 120.0 mg/kg/injection, schedule: Q01DX005 (ip), vehicle: saline) 100 % of control.

Regarding `CCCCCCCC(=O)C(=O)c1ccc(O)c(C)c1O`, the T/C is 109 % of control (dose: 50.0 mg/kg/injection, schedule: Q01DX009 (ip), vehicle: Klucel (hydroxypropylcellulose) (HPC)); 102 % of control (dose: 100.0 mg/kg/injection, schedule: Q01DX009 (ip), vehicle: Klucel (hydroxypropylcellulose) (HPC)); 106 % of control (dose: 200.0 mg/kg/injection, schedule: Q01DX009 (ip), vehicle: Klucel (hydroxypropylcellulose) (HPC)).

Consider `CCc1c2cc(OC)c(OC)cc2cc2c3cc(OC)c(OC)cc3cc[n+]12` (tested in a mixture with another compound), for which the T/C (dose: 8.8 mg/kg/injection, schedule: Q04DX003 (ip), vehicle: saline) was 108 % of control; the T/C (dose: 20.0 mg/kg/injection, schedule: Q04DX003 (ip), vehicle: saline) is 122 % of control; the T/C (dose: 25.0 mg/kg/injection, schedule: Q01DX009 (ip), vehicle: saline) is 151 % of control; the T/C (dose: 29.3 mg/kg/injection, schedule: Q01DX009 (ip), vehicle: saline with Tween-80) was 153 % of control; the T/C (dose: 37.5 mg/kg/injection, schedule: Q01DX009 (ip), vehicle: saline with Tween-80) was 167 % of control; the T/C (dose: 44.0 mg/kg/injection, schedule: Q01DX009 (ip), vehicle: saline with Tween-80) was 170 % of control. Further, the T/C reads like this: under setting [4], 178 % of control; (dose: 66.0 mg/kg/injection, schedule: Q01DX009 (ip), vehicle: saline with Tween-80) 201 % of control; (dose: 75.0 mg/kg/injection, schedule: Q01DX009 (ip), vehicle: saline with Tween-80) 208 % of control; (dose: 88.0 mg/kg/injection, schedule: Q04DX003 (ip), vehicle: saline) 150 % of control; (dose: 100.0 mg/kg/injection, schedule: Q04DX003 (ip), vehicle: saline with Tween-80) 154 % of control; (dose: 150.0 mg/kg/injection, schedule: Q01DX009 (ip), vehicle: saline with Tween-80) 234 % of control. For the same compound, the T/C was 244 % of control and 92 % of control (dose: 150.0 mg/kg/injection, schedule: Q01DX009 (ip), vehicle: saline); 171 % of control under setting [5]; 181 % of control (dose: 200.0 mg/kg/injection, schedule: Q04DX003 (ip), vehicle: saline with Tween-80); 150 % of control and 191 % of control (dose: 200.0 mg/kg/injection, schedule: Q04DX003 (ip), vehicle: saline); 218 % of control (dose: 225.0 mg/kg/injection, schedule: Q01DX009 (ip), vehicle: saline); 195 % of control (dose: 300.0 mg/kg/injection, schedule: Q04DX003 (ip), vehicle: saline). The T/C (dose: 400.0 mg/kg/injection, schedule: Q04DX003 (ip), vehicle: saline with Tween-80) was 90 % of control and the T/C (dose: 400.0 mg/kg/injection, schedule: Q04DX003 (ip), vehicle: saline) was 104 % of control.

`O=c1[nH]cnc2cc3cn[nH]c3cc12`: the T/C is, setting by setting: (dose: 50.0 mg/kg/injection, schedule: Q01DX005 (ip), vehicle: saline with Tween-80) 91 % of control; (dose: 100.0 mg/kg/injection, schedule: Q01DX005 (ip), vehicle: saline with Tween-80) 96 % of control; (dose: 200.0 mg/kg/injection, schedule: Q01DX005 (ip), vehicle: saline with Tween-80) 95 % of control.
